# In patent US7025992B2, “Pharmaceutical formulations” (priority 2001, dated 2006):
# “Also recorded” adds a separate entry of the source.
# What was measured:
# [1] = Stability on storage, assay as percentage of initial value; type: physicochemical; settings: for stability in the formulation (in words): conclusion from Table 5
# From the text: The data are reported as percentage of initial assay value.
# [2] = CBD given before THC, cognitive effects; type: in vivo; settings: CBD (or CBDV) administered before THC; not observed if THC is given before CBD
# [3] = biological target: CB1 (Brain receptors) (Homo sapiens, UniProt P21554); settings: cited from earlier work
# [4] = Table 3; Brown, 1998; cited from earlier work
# [5] = Solubility of cannabinoids
# [6] = Subject reports on THCV (mood enhancement, hangover); type: in vivo; settings: compared with THC
# [7] = Analgesic effect of THCV vs THC; type: in vivo; settings: compared with THC
# [8] = Pain relief, THC alone vs extract of cannabis; type: in vivo; settings: THC alone vs same quantity of THC given as an extract of cannabis
# [9] = Table 3 footnote; cited from earlier work
# [10] = Table 3 footnote; naïve patients may show postural hypotension, hypertension reported on prolonged usage; cited from earlier work
# [11] = stated as known; cited from earlier work
# [12] = Absorption (AUC) of cannabinoid and primary metabolite in blood after dosing; settings: after oropharyngeal (buccal) administration compared with sublingual
# Sequence of CB1 (Brain receptors) (P21554 whole entry, species assumed): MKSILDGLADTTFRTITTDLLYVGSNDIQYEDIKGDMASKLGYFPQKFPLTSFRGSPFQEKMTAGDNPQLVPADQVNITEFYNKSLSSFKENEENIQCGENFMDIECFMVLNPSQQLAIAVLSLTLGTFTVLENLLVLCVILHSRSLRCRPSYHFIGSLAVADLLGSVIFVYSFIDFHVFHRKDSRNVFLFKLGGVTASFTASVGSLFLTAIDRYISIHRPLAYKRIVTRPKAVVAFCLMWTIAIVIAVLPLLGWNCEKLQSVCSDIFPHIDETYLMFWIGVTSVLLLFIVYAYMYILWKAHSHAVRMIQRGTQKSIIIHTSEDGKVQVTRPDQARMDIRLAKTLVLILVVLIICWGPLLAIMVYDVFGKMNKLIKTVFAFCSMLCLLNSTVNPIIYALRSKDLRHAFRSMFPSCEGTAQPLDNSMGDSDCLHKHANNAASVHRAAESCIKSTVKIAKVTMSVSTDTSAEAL
smiles,measurement,setting,value
"C=C(C)[C@@H]1CCC(C)=C[C@H]1c1c(O)cc(CCCCC)cc1O [CBD, cannabidiol]",stability in the formulation (in words),[1],good stability
same,effect as pharmaceutical stabilizer,[1]; observation of the applicants,able to act as a pharmaceutical stabilizer of pharmaceutical formulations and thus prolong shelf-life
same,psychoactive effects of THC,[2],diminished
same,subsequent sedation,[2],postponed and mitigated
same,CB1 (Brain receptors),[3],∀
same,Anti-inflammatory,[4],∀
same,solubility in aqueous excipients,[5],very low solubility
"C=C(C)[C@@H]1CCC(C)=C[C@H]1c1c(O)cc(CCC)cc1O [CBDV, cannabidivarin]",psychoactive effects of THC,[2],diminished
same,subsequent sedation,[2],postponed and mitigated
"CCCc1cc(O)c2c(c1)OC(C)(C)[C@@H]1CCC(C)=C[C@@H]21 [THCV, tetrahydrocannabinovarin]",hangover,[6],less severe hangover; also recorded: reduced potential for hangover
same,mood enhancement,[6]; reported by subjects taking THCV,less disturbing than that produced by THC
same,"analgesic effect, speed",[7],more rapid analgesic effect than THC
"CCCCCc1cc(O)c2c(c1)OC(C)(C)[C@@H]1CCC(C)=C[C@@H]21 [THC, Δ^9-tetrahydrocannabinol]",stability in the formulation (in words),[1],less stable
same,degree of pain relief,[8],lower degree of pain relief than the same quantity of THC given as an extract of cannabis
same,Anti-inflammatory,[4],∀
same,convulsant effect (footnote H to Anticonvulsant),[9],H THC is pro convulsant
same,effect on blood pressure (footnote ′),[10],′ THC has a biphasic effect on blood pressure; in naïve patients it may produce postural hypotension and it has also been reported to produce hypertension on prolonged usage. GW Internal Report No 002/000159.
same,solubility in aqueous excipients,[5],very low solubility
same,amount of THC that could be stabilised,[5]; aerosol sprays containing ethanol plus a propellant,0.7 mg of THC per 0.1 ml of liquid formulation
CCCCCc1cc(O)c2c(c1)OC(C)(C)[C@@H]1CCC(CO)=C[C@@H]21 [11 OH THC],psychoactivity relative to parent compound,[11],possibly more psychoactive than the parent compound
same,reduction in the amount of 11 OH metabolite detected,[12],approximately 25%
